Data published in publication PMC9795544, “Identifying Novel Inhibitors for Hepatic Organic Anion Transporting Polypeptides by Machine Learning-Based Virtual Screening” (Journal of Chemical Information and Modeling, 2022).
“And” between values parts separate entries of the source, which are not always exact repeats. Equal values may be shown once. Read-outs that look alike come from different tables or passages of the source.

Experiments:
Type in all cases: cell-based
OATP1B1 = molecular target: T1, OATP1B1 (Homo sapiens, UniProt Q9Y6L6); assay: Pyranine transport inhibition in A431 cells overexpressing OATP1B1
T1 construct: expressed in transfected cells; host or cells: A431 cells
T1 sequence (Q9Y6L6 1-691): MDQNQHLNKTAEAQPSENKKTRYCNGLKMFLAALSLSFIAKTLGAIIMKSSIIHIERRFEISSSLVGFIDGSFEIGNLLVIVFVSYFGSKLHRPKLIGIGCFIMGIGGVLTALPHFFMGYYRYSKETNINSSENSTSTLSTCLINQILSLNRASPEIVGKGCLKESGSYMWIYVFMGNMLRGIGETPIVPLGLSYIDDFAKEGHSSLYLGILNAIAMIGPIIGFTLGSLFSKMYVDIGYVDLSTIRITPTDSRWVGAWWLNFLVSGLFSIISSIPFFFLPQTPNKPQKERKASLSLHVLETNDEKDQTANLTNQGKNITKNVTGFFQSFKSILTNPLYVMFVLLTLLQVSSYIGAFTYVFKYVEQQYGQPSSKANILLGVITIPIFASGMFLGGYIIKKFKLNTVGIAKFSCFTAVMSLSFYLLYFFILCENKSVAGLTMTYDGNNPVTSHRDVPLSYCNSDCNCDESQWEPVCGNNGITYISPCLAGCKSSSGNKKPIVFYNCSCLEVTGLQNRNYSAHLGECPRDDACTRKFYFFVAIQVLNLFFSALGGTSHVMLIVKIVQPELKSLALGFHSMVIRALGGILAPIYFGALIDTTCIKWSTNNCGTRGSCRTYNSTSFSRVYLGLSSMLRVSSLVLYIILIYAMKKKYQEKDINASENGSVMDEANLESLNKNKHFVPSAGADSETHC
Protocol: (§1) A431 cells overexpressing OATP1B1, OATP1B3, or OATP2B1 or their mock transfected controls were generated previously[30] and maintained in Dulbecco’s modified Eagle medium (DMEM, Gibco, Thermofisher Scientific, Waltham, MA, US) supplemented with 10% fetal bovine serum, 2 mM L-glutamine, 100 units/mL penicillin, and 100 μg/mL streptomycin. Expression and function of OATPs in the cell lines were checked regularly.
(§2) Interaction with OATP1B1, OATP1B3, or OATP2B1 was tested in an indirect transport assay using pyranine (8-hydroxypyrene-1,3,6-trisulfonic acid trisodium salt, H1529, Sigma, Merck, Budapest, Hungary) as the test substrate[31],[32] A431 cells overexpressing OATP1B1, OATP1B3, or OATP2B1 or their mock transfected controls were seeded on 96-well plates in a density of 8 × 10^4 cells per well in 200 μL of cell culture medium 1 day prior to the transport measurements. […] The transport reaction was started by the addition of 50 μL of uptake buffer containing pyranine in a final concentration of 10 μM (OATP1B1) or 20 μM (OATP1B3 and OATP2B1), and the cells were further incubated at 37 °C for 15 min (OATP1B1 and OATP2B1) or 30 min (OATP1B3). The reaction was stopped by removing the supernatant. After repeated washing with ice-cold PBS, fluorescence was determined in an Enspire plate reader (PerkinElmer, Waltham, MA) with excitation/emission wavelengths of 460/510 nm. OATP-dependent transport was calculated by extracting fluorescence measured in mock transfected cells and normalized to the fluorescence signal obtained in the absence of the tested compounds (100%). Experiments were repeated in at least three biological replicates.

OATP2B1 = molecular target: T2, OATP2B1 (Homo sapiens, UniProt O94956); assay: Pyranine transport inhibition in A431 cells overexpressing OATP2B1
T2 construct: expressed in transfected cells; host or cells: A431 cells
T2 sequence (O94956 1-709): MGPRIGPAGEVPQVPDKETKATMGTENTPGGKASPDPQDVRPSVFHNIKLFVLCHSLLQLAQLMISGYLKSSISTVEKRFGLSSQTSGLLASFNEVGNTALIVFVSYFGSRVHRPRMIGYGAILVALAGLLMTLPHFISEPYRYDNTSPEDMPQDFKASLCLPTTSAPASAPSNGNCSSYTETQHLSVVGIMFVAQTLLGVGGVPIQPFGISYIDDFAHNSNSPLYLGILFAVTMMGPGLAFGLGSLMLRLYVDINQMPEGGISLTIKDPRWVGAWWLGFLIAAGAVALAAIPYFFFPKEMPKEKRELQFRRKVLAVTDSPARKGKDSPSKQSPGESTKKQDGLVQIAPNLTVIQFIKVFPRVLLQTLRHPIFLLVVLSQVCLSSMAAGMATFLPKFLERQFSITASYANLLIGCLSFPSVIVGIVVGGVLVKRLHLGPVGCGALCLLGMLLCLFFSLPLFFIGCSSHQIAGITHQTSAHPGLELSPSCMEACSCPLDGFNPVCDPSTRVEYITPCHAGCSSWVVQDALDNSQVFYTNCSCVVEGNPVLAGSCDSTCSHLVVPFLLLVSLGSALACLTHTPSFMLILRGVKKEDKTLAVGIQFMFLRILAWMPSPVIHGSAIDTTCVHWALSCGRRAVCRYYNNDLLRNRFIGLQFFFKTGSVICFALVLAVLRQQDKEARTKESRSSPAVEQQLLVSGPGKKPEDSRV
Protocol: as §1, §2

OATP1B3 = molecular target: T3, OATP1B3 (Homo sapiens, UniProt Q9NPD5); assay: Pyranine transport inhibition in A431 cells overexpressing OATP1B3
T3 construct: expressed in transfected cells; host or cells: A431 cells
T3 sequence (Q9NPD5 1-702): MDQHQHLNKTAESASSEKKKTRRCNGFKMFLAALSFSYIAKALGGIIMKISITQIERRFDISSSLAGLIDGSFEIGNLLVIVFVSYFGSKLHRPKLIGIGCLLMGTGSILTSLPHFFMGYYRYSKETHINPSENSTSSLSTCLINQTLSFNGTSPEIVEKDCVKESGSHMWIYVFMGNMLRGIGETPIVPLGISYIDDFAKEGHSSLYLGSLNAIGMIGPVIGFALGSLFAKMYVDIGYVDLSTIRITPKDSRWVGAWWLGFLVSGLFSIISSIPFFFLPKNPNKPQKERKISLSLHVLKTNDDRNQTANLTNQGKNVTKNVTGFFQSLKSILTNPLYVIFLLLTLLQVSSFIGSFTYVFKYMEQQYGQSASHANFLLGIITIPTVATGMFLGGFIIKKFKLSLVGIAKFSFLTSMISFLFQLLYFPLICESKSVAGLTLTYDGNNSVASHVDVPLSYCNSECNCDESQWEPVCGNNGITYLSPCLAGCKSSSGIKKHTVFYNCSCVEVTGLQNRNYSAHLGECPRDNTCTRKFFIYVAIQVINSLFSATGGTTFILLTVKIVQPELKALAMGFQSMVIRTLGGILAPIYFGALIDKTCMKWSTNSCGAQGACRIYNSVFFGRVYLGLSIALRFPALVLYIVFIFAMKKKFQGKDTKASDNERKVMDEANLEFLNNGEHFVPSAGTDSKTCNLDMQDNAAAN
Protocol: as §1, §2

[1] = initial three-point screen (1, 10, 100 μM), category by concentration needed for 50% inhibition, pyranine 10 μM, 15 min, pH 5.5, read-out: IC50 (μM) OATP1B1
[2] = initial three-point screen (1, 10, 100 μM), category by concentration needed for 50% inhibition, pyranine 20 μM, 15 min, pH 5.5, read-out: IC50 (μM) OATP2B1
[3] = initial three-point screen (1, 10, 100 μM), category by concentration needed for 50% inhibition, pyranine 20 μM, 30 min, pH 5.5, read-out: IC50 (μM) OATP1B3
[4] = IC50 (μM) OATP2B1, initial three-point screen (1, 10, 100 μM), category by concentration needed for 50% inhibition, pyranine 20 μM, 15 min, pH 5.5
[5] = initial three-point screen (1, 10, 100 μM), category by concentration needed for 50% inhibition, pyranine 20 μM, 30 min, pH 5.5
[6] = initial three-point screen (1, 10, 100 μM), category by concentration needed for 50% inhibition, pyranine 10 μM, 15 min, pH 5.5
[7] = full dose-response curve, eight concentrations, Hill1 fit, read-out: IC50 (μM) OATP1B1
[8] = full dose-response curve, eight concentrations, Hill1 fit, read-out: IC50 (μM) OATP2B1
[9] = full dose-response curve, eight concentrations, Hill1 fit, read-out: IC50 (μM) OATP1B3

Structure (SMILES) | IC50 (OATP1B1; [1]) | IC50 (OATP2B1; [2]) | IC50 (OATP1B3; [3]) | further results
Cc1cc(NS(=O)(=O)c2ccc(NC(=O)Cc3coc4c(C)c(C)ccc34)cc2)nc(C)n1 [F5, Cc1cc(NS(=O)(=O)c2ccc(NC(=O)Cc3coc4c(C)c(C)ccc34)cc2)nc(C)n1] | 1 to 10 µM | 1 to 10 µM | 1 to 10 µM | 
Cc1cccn2cc(COC(=O)c3ccc4c(c3)C(=O)N(Cc3ccco3)C4=O)nc12 [C4, Cc1cccn2cc(COC(=O)c3ccc4C(=O)N(Cc5occc5)C(=O)c4c3)nc12] |  |  |  | IC50 (OATP1B1): > 10 µM; IC50 (OATP2B1; [4]): > 10 µM; IC50 (μM) OATP1B3 (OATP1B3; [5]): no effect
O=C(CN1C(=O)NC(Cc2c[nH]c3ccccc23)C1=O)Nc1ccc(OCc2ccccc2)cc1 (stereo not shown) [A6, O=C(CN1C(=O)NC(Cc2c[nH]c3ccccc23)C1=O)Nc4ccc(OCc5ccccc5)cc4] |  | > 10 µM | > 10 µM | IC50 (μM) OATP1B1 (OATP1B1; [6]): no effect
O=C(NCc1cn(Cc2ccccc2)nc1-c1ccccc1)c1cc(F)cc(F)c1 [E5, Fc1cc(F)cc(c1)C(=O)NCc2cn(Cc3ccccc3)nc2c4ccccc4] | 1 to 10 µM |  |  | IC50 (OATP1B1; [7]): 7.61 µM; IC50 (OATP2B1; [8]): 1.48 µM; IC50 (OATP1B3; [9]): 7.5 µM
Cc1ccc(N2C(=O)/C(=C\Nc3nc4ccccc4nc3N3CCCC3)c3ccccc3C2=O)c(C)c1 [G6, Cc1ccc(N2C(=O)\C(=C/Nc3nc4ccccc4nc3N5CCCC5)\c6ccccc6C2=O)c(C)c1] |  | > 10 µM |  | IC50 (μM) OATP1B1 (OATP1B1; [6]): no effect; IC50 (μM) OATP1B3 (OATP1B3; [5]): no effect
CSCCC(NC(=O)c1ccco1)C(=O)OCc1cc(=O)oc2cc(O)ccc12 (stereo not shown) [B7, CSCCC(NC(=O)c1occc1)C(=O)OCC2=CC(=O)Oc3cc(O)ccc23] | 1 to 10 µM | 1 to 10 µM | > 10 µM | 
O=C(Cc1ccccc1[N+](=O)[O-])NCC1CC2c3ccccc3C1c1ccccc12 (stereo not shown) [B4, [O-][N+](=O)c1ccccc1CC(=O)NCC2CC3c4ccccc4C2c5ccccc35] |  |  |  | IC50 (OATP1B1; [7]): ~10 µM; IC50 at 15 min (OATP1B1; human, pH 5.5): > 10 µM; IC50 (OATP2B1; [4]): 1 to 10 µM; IC50 (OATP2B1; [8]): 2.4 µM and 2.37 µM; IC50 (OATP1B3; IC50 (μM) OATP1B3, initial three-point screen (1, 10, 100 μM), category by concentration needed for 50% inhibition, pyranine 20 μM, 30 min, pH 5.5): 1 to 10 µM; IC50 (OATP1B3; [9]): ~10 µM
O=C(O)c1cc(/C=C/c2c(-c3ccccc3)nc3ccccn23)nc2ccccc12 [C7, OC(=O)c1cc(\C=C\c2c(nc3ccccn23)c4ccccc4)nc5ccccc15] |  | < 1 µM | 1 to 10 µM | IC50 (OATP1B1): > 10 µM; IC50 (OATP2B1; [8]): 0.04 µM; IC50 (OATP1B3; [9]): 5.4 µM; fold lower affinity on OATP1B3 than on OATP2B1 (OATP1B3; ratio of IC50 OATP1B3 / OATP2B1): 135 fold
O=C(CCN1C(=O)NC2(CCCC2)C1=O)Nc1nc(-c2ccc3c(c2)CCC3)cs1 [D3, O=C(CCN1C(=O)NC2(CCCC2)C1=O)Nc3nc(cs3)c4ccc5CCCc5c4] |  | > 10 µM |  | IC50 (μM) OATP1B1 (OATP1B1; [6]): no effect; IC50 (μM) OATP1B3 (OATP1B3; [5]): no effect
CC(C)c1cc(C(=O)N2CCC(n3c(=O)[nH]c4ccccc43)CC2)c2cnn(C(C)C)c2n1 [C6, CC(C)c1cc(C(=O)N2CCC(CC2)N3C(=O)Nc4ccccc34)c5cnn(C(C)C)c5n1] | 1 to 10 µM | 1 to 10 µM | 1 to 10 µM | 
CCc1ccccc1NC(=O)CN1CCN(C(=O)c2cc(-c3ccncc3)nc3ccccc23)CC1 [C3, CCc1ccccc1NC(=O)CN2CCN(CC2)C(=O)c3cc(nc4ccccc34)c5ccncc5] | 1 to 10 µM | 1 to 10 µM | > 10 µM | 
CCn1cnc2c1c(=O)n(CC(=O)NC1CCCC(C)C1C)c(=O)n2Cc1ccccc1 (stereo not shown) [E6, CCn1cnc2N(Cc3ccccc3)C(=O)N(CC(=O)NC4CCCC(C)C4C)C(=O)c12] | > 10 µM | 1 to 10 µM | > 10 µM | 
O=C(NCc1ccc(N2CCOCC2)nc1)c1ccccc1CSc1nc2ccccc2[nH]1 [F6, O=C(NCc1ccc(nc1)N2CCOCC2)c3ccccc3CSc4nc5ccccc5[nH]4] | > 10 µM | 1 to 10 µM | > 10 µM | 
O=C1NC2(CCCc3sccc32)C(=O)N1CC(=O)N1c2ccccc2OCC1c1ccccc1 (stereo not shown) [D2, O=C(CN1C(=O)NC2(CCCc3sccc23)C1=O)N4C(COc5ccccc45)c6ccccc6] | > 10 µM | > 10 µM | > 10 µM | 
